{
  "source": "patent US6231894A",
  "about": "“Treatments based on discovery that nitric oxide synthase is a paraquat diaphorase” (Duke University, priority 1999, dated 2001)",
  "key": {"[1]": {"system": "RAW-264.7 monocyte macrophage cells", "experiment": "LDH release from macrophages (cytotoxicity)", "assay_type": "cell-based", "experimental": "The RAW-264.7 monocyte macrophage cells line (TIB-71) was purchased from the American Type Culture Collection (Manassas, Va.). The cells were grown in T-75 flasks containing DMEM (Gibco-BRL, Grand Island, N.Y.) supplemented with 1 mM pyruvate, 4.5 g/L glucose and […] fetal bovine serum Macrophages were plated at 2.0×10^4 cells/well in 24-well plates and experiments were performed when cells were near confluence. Macrophages were immunostimulated with 50 ng/ml lipopolysaccharide (LPS) from E. coli serotype 0111:B4 (Signia, St. Louis, Mo.) and 50 U/ml recombinant mouse interferon gamma (INF-γ, R&D Systems, Minneapolis,Minn.). Macrophages were used between passages 2-8. Cell cultures were kept in a 37° C. incubator with air and 5% carbon dioxide.\nNOS2 was induced in RAW cells using a mixture of interferon-γ and lipopolysaccharide (LPS) referred to as \"cytomix.\" Unstimulated (basal) and activated (cytomix) macrophages were treated with 0.1 mM paraquat or not treated with paraquat and cytotoxicity and NO production were assessed at 24 hours.\nCell injury was assessed by measuring LDH release.\nTo further exclude the role of peroxynitrite, macrophages were treated with increasing concentrations of the NO-donor, DETA NONOate in the presence of 0.1 mM paraquat. Macrophage cytotoxicity and NO release were assessed 24 hours after treatments. Cell injury was assessed by measuring LDH release."}, "Rabbit aortic rings": {"system": "Rabbit aortic rings", "experiment": "Acetylcholine-induced (EDRF) relaxation of aortic rings", "experimental": "Rabbit aortic rings were treated with increasing concentrations of paraquat or L-NAME (2 mM) prior to initiating a constriction response with 1 μM phenylephrine (initial contraction).\nNew Zealand white male rabbits weighting 3-4 kg were anaesthetized with phenobarbital (30 mg/kg/iv). The descending thoracic aorta was isolated and placed in Krebs-Henseleit buffer (pH 7.4) and stored at 4° C. until used. The vessels were cut into 5 mm rings and submerged in 25 ml double jacketed tissue baths containing Krebs-Henseleit buffer bubbled with 95% oxygen and 5% carbon dioxide at 37° C. Rings were hung on stainless steel stirrups connected to calibrated force transducers. Rings were equilibrated with 2 g resting tension for 1 hour before use and contracted with phenylephrine (1 μM). Rings were incubated with paraquat for 15 minutes before acetylcholine-induced or exogenous relaxations were performed.\nEndothelial-derived relaxing factor (EDRF) responses were initiated by addition of acetylcholine."}, "aconitase": {"system": "aconitase", "experiment": "Aconitase/fumarase activity ratio in macrophage lysates", "assay_type": "cell-based", "conditions": "24 hours, FIG. 5", "experimental": "Aconitase activity (a sensitive marker of O2^- and peroxynitrite formation) and fumarase activity were measured as described in Patel, M., et al., Nuron 16, 345-355 (1996). Specifically aconitase activity was determined spectrophotometrically by monitoring the formation of cis-aconitate from isocitrate at 240 nm. Fumarase activity was measured by monitoring the increased absorbence at 240 mn following the formation of fumarate from L-malate. Aconitase activity was expressed as a ratio of aconitase activity to flimarase activity in order to correct for differences in cell numbers.\nAconitase activity was measured in cell lysates 24 hours after cytomix, DETA nonoate and paraquat treatments. Macrophages were grown in 24-well plates and treated with cytomix or 250 μM DETA NONOate. Control, activated (cytomix) and DETA NONOate groups were treated with paraquat (0.1 mM) or not treated with paraquat. The results are shown in FIG. 5 where an asterisk indicates a significant difference from control group, p<0.05."}, "restenosis": {"system": "restenosis", "experiment": "Working Example VIII: restenosis patient", "assay_type": "in vivo, human", "conditions": "10 mg locally instilled via balloon, repeat angioplasty", "experimental": "A person undergoes angioplasty of the left anterior descending coronary artery. Two weeks following procedure, they present with chest pain and the radiographic evidence of restenosis. They undergo repeat angioplasty with infusion of paraquat (dosage of 10 mg), locally instilled under pressure via the balloon."}, "[2]": {"target": "T1, Recombinant rat neuronal nitric oxide synthase (NOS1) (Rattus norvegicus, UniProt P29476)", "T1 construct": "purchased Oxis, Portland, Oreg", "T1 sequence (P29476 whole entry)": "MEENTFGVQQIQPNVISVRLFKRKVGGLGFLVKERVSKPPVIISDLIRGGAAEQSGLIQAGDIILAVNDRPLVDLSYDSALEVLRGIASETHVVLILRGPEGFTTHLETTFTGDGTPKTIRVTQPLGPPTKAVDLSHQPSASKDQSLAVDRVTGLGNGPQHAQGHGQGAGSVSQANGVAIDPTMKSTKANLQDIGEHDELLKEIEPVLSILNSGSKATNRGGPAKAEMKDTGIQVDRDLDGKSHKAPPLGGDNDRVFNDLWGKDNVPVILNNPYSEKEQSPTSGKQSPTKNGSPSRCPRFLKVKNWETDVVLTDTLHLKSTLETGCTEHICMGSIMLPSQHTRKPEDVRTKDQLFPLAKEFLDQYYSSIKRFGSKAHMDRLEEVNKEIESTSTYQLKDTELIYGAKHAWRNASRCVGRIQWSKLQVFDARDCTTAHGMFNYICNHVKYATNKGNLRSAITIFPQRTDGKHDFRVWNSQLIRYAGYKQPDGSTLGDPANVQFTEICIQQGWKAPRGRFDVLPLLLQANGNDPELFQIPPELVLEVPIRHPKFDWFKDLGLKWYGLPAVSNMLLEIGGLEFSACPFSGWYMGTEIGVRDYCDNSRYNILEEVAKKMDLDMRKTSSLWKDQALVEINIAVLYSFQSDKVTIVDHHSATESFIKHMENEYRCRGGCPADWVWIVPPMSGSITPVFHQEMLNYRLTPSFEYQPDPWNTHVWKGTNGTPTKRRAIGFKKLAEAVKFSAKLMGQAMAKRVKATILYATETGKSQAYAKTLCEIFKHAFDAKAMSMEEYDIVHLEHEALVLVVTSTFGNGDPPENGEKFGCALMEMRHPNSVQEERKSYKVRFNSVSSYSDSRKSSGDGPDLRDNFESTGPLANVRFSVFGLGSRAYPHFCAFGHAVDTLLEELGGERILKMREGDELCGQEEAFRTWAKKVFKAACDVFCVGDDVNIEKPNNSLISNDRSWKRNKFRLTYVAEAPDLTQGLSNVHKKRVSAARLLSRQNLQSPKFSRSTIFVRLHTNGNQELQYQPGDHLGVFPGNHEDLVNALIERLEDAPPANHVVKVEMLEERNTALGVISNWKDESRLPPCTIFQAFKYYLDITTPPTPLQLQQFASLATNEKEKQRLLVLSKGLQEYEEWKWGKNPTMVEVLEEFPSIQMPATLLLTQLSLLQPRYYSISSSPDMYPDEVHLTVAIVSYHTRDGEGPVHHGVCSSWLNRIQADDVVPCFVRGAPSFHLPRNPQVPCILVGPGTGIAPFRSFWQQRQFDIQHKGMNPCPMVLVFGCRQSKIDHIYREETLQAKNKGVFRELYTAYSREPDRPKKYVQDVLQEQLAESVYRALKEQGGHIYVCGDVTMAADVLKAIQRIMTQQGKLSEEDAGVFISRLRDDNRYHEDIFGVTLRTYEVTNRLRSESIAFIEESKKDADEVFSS", "experiment": "NADPH oxidation (paraquat diaphorase activity) by recombinant rat neuronal nitric oxide synthase", "assay_type": "biochemical", "experimental": "(§1) Recombinant rat neuronal nitric oxide synthase (NOS1, Oxis, Portland, Oreg.), a constitutive enzyme, was used to assay NADPH oxidation in the presence of increasing concentrations of paraquat. Reactions (0.2 ml) were performed in bis-tris propane buffer (40 mM) containing L-arginine (1 mM), CaCl2 (1.2 mM), EDTA (0.9 mM), NADPH (0.35 mM), dithiothreitol (3 mM), tetrahydrobiopterin (4 μM), catalase (1 μg/ml) and calmodulin (200 U/ml) at pH 7.4. Reactions were initiated by the addition of 1.5 U of NOS1, and the oxidation of NADPH was continuously monitored at 340 nm for 1 minute at 37° C. in a plate reader. The rate of NOS-mediated NADPH oxidation was determined using an extinction coefficient of 6.22 mM^-1 cm^-1 after subtracting the baseline of NADPH oxidation.\nThe experiment of Background Example 1 for NADPH oxidation was carried out in the presence and absence of 25 μM paraquat, without any NOS inhibitor (control), in the presence of L-NAME (1 mM) or in the presence of 1 mM L-NMMA. […] Only L-NAME shut down the NADPH oxidase activity."}, "[3]": {"target": "T1, Recombinant rat neuronal nitric oxide synthase (NOS1)", "experiment": "NO formation by NOS1, total nitrite and nitrate (colorimetric)", "assay_type": "biochemical", "experimental": "as §1\nThe same microtiter plates used above were left at room temperature for 5 hours and then an aliquot was assayed for total nitrite and nitrate. Nitrite and nitrate were assayed using a non-enzymatic colorimetric kit (NB-88, Oxford Biomedical Research, Oxford, Mich.). NADPH oxidation was stopped after 5 hours by addition of 25 μl of zinc sulfate (30% w/v) to precipitate the NOS protein. Nitrate was non-enzymatically converted to nitrite by overnight incubation of 150 μl of reaction mixture from the NADPH oxidation assay with cadmium beads. Nitrite concentration was determined from a standard curve using 100 μl sample or standard. As shown FIG. 1(b), the formation of NO was inhibited by paraquat."}, "[4]": {"conditions": "conclusion of Background Example 1"}},
  "data": [
    {"smiles": "C[n+]1ccc(-c2cc[n+](C)cc2)cc1", "note": "[paraquat]", "values": [
      {"measurement": "cell injury (LDH release), single treatment", "setting": "[1]; 0.1 mM paraquat or cytomix alone, 24 hours, FIG. 4(a)", "result": "very little cell injury"},
      {"measurement": "paraquat-induced cytotoxicity in activated macrophages", "setting": "[1]; 0.1 mM paraquat plus cytomix, 24 hours, FIG. 4(a)", "result": "potentiated in cytokine-activated macrophages"},
      {"measurement": "effect of paraquat on DETA NONOate-induced cell injury", "setting": "[1]; 0.1 mM paraquat, higher DETA NONOate concentrations, 24 hours, FIG. 4(c)", "result": "DETA NONOate-induced cell injury was attenuated by paraquat"},
      {"measurement": "cell killing / amelioration of toxicity, conclusion", "setting": "[1]; conclusion of Background Example 4", "result": "kills cells containing NOS but not cells that do not"},
      {"measurement": "EDRF responses / vessel constriction, conclusion", "setting": "Rabbit aortic rings; conclusion of Background Example 3", "result": "blocks EDRF responses and thereby constricts blood vessels"},
      {"measurement": "inhibition of EDRF-induced relaxation, in words", "setting": "Rabbit aortic rings; increasing paraquat, 15 min before acetylcholine, phenylephrine 1 μM, FIG. 3(a)", "result": "dose-dependent inhibition of EDRF-induced relaxation"},
      {"measurement": "aconitase activity", "setting": "aconitase; paraquat 0.1 mM plus 250 μM DETA NONOate", "result": "not seen in the paraquat/DETA NONOate group"},
      {"measurement": "aconitase activity", "setting": "aconitase; paraquat 0.1 mM plus cytomix", "result": "a decrease in aconitase activity is seen"},
      {"measurement": "restenosis or angina", "setting": "restenosis", "result": "without further episode of restenosis or angina"},
      {"measurement": "increase in NADPH oxidation over the basal rate", "setting": "[2]; 25 μM paraquat without NOS inhibitor, FIG. 2(a)", "result": "about three-fold"},
      {"measurement": "NOS diaphorase / superoxide formation", "setting": "[2]; [4]", "result": "is an NOS diaphorase and causes superoxide formation"},
      {"measurement": "paraquat diaphorase activity of NOS1", "setting": "[2]; in the presence of 1 mM L-arginine", "result": "NOS1 was found to exhibit paraquat diaphorase activity"},
      {"measurement": "NADPH oxidation", "setting": "[2]; increasing paraquat concentrations, 1 mM L-arginine, pH 7.4, 37° C., FIG. 1(a)", "result": "concentration-dependent increase in NADPH oxidation"},
      {"measurement": "NO formation (accumulation of nitrite and nitrate)", "setting": "[3]; FIG. 1(b), 5 hours at room temperature", "result": "concentration dependent decrease in NO formation"},
      {"measurement": "IC50", "setting": "[3]; concentration that inhibited NO formation by 50%, 95% confidence level 47-82 μM, 5 hours, read-out: IC50, inhibition of NO formation", "result": 62, "unit": "µM"},
      {"measurement": "NOS activity", "setting": "[3]; [4]", "result": "inhibits NOS activity"}
    ]}
  ]
}
